# Experimental data: patent US20230365585A1, “BENZODIAZEPINE DERIVATIVES USEFUL IN TREATING A RESPIRATORY SYNCYTIAL VIRUS INFECTION” (priority 2020, published 2023)
# pEC50: −log10 of the molar value.
# Assays:
# Cell cytotoxicity CC50 = type: cell-based; conditions: human; mean of at least two experiments
# From the text: (§1) Plates were scanned and analysed using the Immunospot S6 Macro analyser, which is equipped with BioSpot analysis software for counting immunostained plaques (virospots). Plaque counts were used to calculate % infection relative to the mean of the plaque count in the virus control wells for RSV. […] Plaque EC50 and cell toxicity CC50 values are a mean of at least two experiments and figures are rounded to whole units.
# RSV A2 = experiment: RSV plaque reduction assay; type: cell-based, RSV (RSV A2 ECACC, 0709161v); conditions: human respiratory syncytial virus, HepG2, 48 h, Hep-G2 cells, RSV A2, 2 days; mean of at least two experiments
# Method: Compounds were subjected to RSV plaque reduction assays according to the following protocol.
# Hep-G2 cells (ECACC, 85011430) were passaged in flasks and seeded in 24-well plates in DMEM containing antibiotics and supplemented with 10% FBS. During inoculation and subsequent incubation, cells were cultured in DMEM containing 2% FBS. 100 plaque forming unit/well of RSV (RSV A2 ECACC, 0709161v) was mixed with eight serial dilutions of compound. Subsequently, 100 µL of the virus/compound mixtures was added to confluent Hep-G2 cell monolayers. The cells and virus/compound mixtures were incubated at 37° C. in a humidified 5% CO2 incubator for 2 h prior to removal of the inoculum and addition of 1 mL of overlay (DMEM containing 2% FBS and 0.8% CMC) containing compound dilutions. The cells and were incubated at 37° C. in a humidified 5% CO2 incubator for 2 days.
# Cells were washed with PBS before adding 75%/25% v/v EtOH/MeOH, for 3 min. Fix ative was removed and plates were washed with PBS. A pre-titrated amount of the primary antibody was added in 200 µL PBS/2% milk powder, and plates incubated for 90 min at 37° C. The plates were washed 3 times with PBS/0.05% Tween20 before addition of rabbit anti-goat horse radish peroxidase in 200 µL PBS/2% milk powder, and incubated for 1 h at 37° C. Following three wash steps with PBS/0.05% Tween20, 200 µL ready-to-use TrueBlue was added and plates were incubated at rt for 10-15 min before washing with water. After removal of water, plates were air-dried in the dark.
# as §1
SMILES,CC50 (Cell cytotoxicity CC50) [nM],pEC50 (RSV A2)
"CCNc1ccc(-c2nn3c(c2C(=O)N[C@H]2N=C(c4ccccc4)c4cccc(F)c4NC2=O)OC(C)CCC3)c(F)n1 (single isomer, unassigned) [Example 11-2, (5S*)-2-[6-(ethylamino)-2-fluoropyridin-3-yl]-N-[(3S)-9-fluoro-2-oxo-5-phenyl-1,3-dihydro-1,4-benzodiazepin-3-yl]-5-methyl-5,6,7,8-tetrahydropyrazolo[5,1-b][1,3]oxazepine-3-carboxamide]",> 25000,8.05
"CC1CCCOc2c(C(=O)NC3N=C(c4ccccc4)c4cccc(F)c4NC3=O)c(-c3ccccc3F)nn21 (single isomer, unassigned) [Example 15-1, (8R*)-N-(9-fluoro-2-oxo-5-phenyl-1,3-dihydro-1,4-benzodiazepin-3-yl)-2-(2-fluorophenyl)-8-methyl-5,6,7,8-tetrahydropyrazolo[5,1-b][1,3]oxazepine-3-carboxamide]",> 25000,7.33
"CCNc1ccc(-c2nn3c(c2C(=O)N[C@H]2N=C(c4ccccc4)c4cccc(F)c4NC2=O)O[C@H](C)CCC3)c(F)n1 (single isomer, unassigned) [Example 11-1]",> 25000,7.66
"CC(C)Nc1ccc(-c2nn3c(c2C(=O)N[C@H]2N=C(c4ccccc4)c4cccc(F)c4NC2=O)O[C@H]2CC[C@@H]3C2)cn1 (single isomer, unassigned) [Example 31-2, (1R*,8S*)-N-[(3S)-9-fluoro-2-oxo-5-phenyl-2,3-dihydro-1H-1,4-benzodiazepin-3-yl]-4-{6-[(propan-2-yl)amino]pyridin-3-yl}-7-oxa-2,3-diazatricyclo[6.2.1.02,6]undeca-3,5-diene-5-carboxamide]",> 25000,7.03
"CCC1CCCn2nc(-c3ccc(C)nc3)c(C(=O)N[C@H]3N=C(c4ccccc4)c4cccc(F)c4NC3=O)c2O1 (single isomer, unassigned) [Example 27-1, (5R*)-5-ethyl-N-[(3S)-9-fluoro-2-oxo-5-phenyl-2,3-dihydro-1H-1,4-benzodiazepin-3-yl]-2-(6-methylpyridin-3-yl)-5H,6H,7H,8H-pyrazolo[3,2-b][1,3]oxazepine-3-carboxamide]",> 25000,6.53
"CC1CCCOc2c(C(=O)NC3N=C(c4ccccc4)c4ccccc4NC3=O)c(-c3ccccc3F)nn21 (single isomer, unassigned) [Example 14-1, (8R*)-2-(2-Fluorophenyl)-8-methyl-N-(2-oxo-5-phenyl-1,3-dihydro-1,4-benzodiazepin-3-yl)-5,6,7,8-tetrahydropyrazolo[5,1-b][1,3]oxazepine-3-carboxamide]",> 25000,7.21
"O=C(N[C@H]1N=C(c2ccccc2)c2ccccc2NC1=O)c1c(-c2ccccc2F)nn2c1OCCCC2 [Example 7, 2-(2-Fluorophenyl)-N-[(3S)-2-oxo-5-phenyl-1,3-dihydro-1,4-benzodiazepin-3-yl]-5,6,7,8-tetrahydropyrazolo[5,1-b][1,3]oxazepine-3-carboxamide]",> 25000,7.28
"CC1CCCOc2c(C(=O)N[C@H]3N=C(c4ccccc4)c4cccc(F)c4NC3=O)c(-c3ccccc3F)nn21 (stereo partly drawn) [Example 15, N-[(3S)-9-fluoro-2-oxo-5-phenyl-1,3-dihydro-1,4-benzodiazepin-3-yl]-2-(2-fluorophenyl)-8-methyl-5,6,7,8-tetrahydropyrazolo[5,1-b][1,3]oxazepine-3-carboxamide]",> 25000,7.19
"CCc1ccc(-c2nn3c(c2C(=O)N[C@H]2N=C(c4ccccc4)c4cccc(F)c4NC2=O)OCC(F)(F)CC3)cn1 [Example 22, 2-(6-Ethylpyridin-3-yl)-6,6-difluoro-N-[(3S)-9-fluoro-2-oxo-5-phenyl-2,3-dihydro-1H-1,4-benzodiazepin-3-yl]-5H,6H,7H,8H-pyrazolo[3,2-b][1,3]oxazepine-3-carboxamide]",> 25000,6.99
"CC1(C)CCCn2nc(-c3ccccc3F)c(C(=O)N[C@H]3N=C(c4ccccc4)c4cccc(F)c4NC3=O)c2O1 [Example 6, N-[(3S)-9-Fluoro-2-oxo-5-phenyl-1,3-dihydro-1,4-benzodiazepin-3-yl]-2-(2-fluorophenyl)-5,5-dimethyl-7,8-dihydro-6H-pyrazolo[5,1-b][1,3]oxazepine-3-carboxamide]",> 25000,7.11
"O=C(N[C@H]1N=C(c2ccccc2)c2cccc(F)c2NC1=O)c1c(-c2ccccc2F)nn2c1O[C@@H]1CC[C@H]2C1 (single isomer, unassigned) [Example 19-1, (1S*,8R*)-N-[(3 S)-9-fluoro-2-oxo-5-phenyl-2,3-dihydro-1H-1,4-benzodiazepin-3-yl]-4-(2-fluorophenyl)-7-oxa-2,3-diazatricyclo[6.2.1.0^2,6]undeca-3,5-diene-5-carboxamide]",> 25000,7.31
"CCc1ccc(-c2nn3c(c2C(=O)N[C@H]2N=C(c4ccccc4)c4cccc(F)c4NC2=O)O[C@@H]2CC[C@H]3C2)cn1 (single isomer, unassigned) [Example 30-1, (1S*,8R*)-4-(6-ethylpyridin-3-yl)-N-[(3S)-9-fluoro-2-oxo-5-phenyl-2,3-dihydro-1H-1,4-benzodiazepin-3-yl]-7-oxa-2,3-diazatricyclo[6.2.1.02,6]undeca-3,5-diene-5-carboxamide]",> 25000,7.21
"O=C(N[C@H]1N=C(c2ccccc2)c2cccc(F)c2NC1=O)c1c(-c2ccccc2)nn2c1OCCCC2 [Example 8, N-[(3S)-9-Fluoro-2-oxo-5-phenyl-1,3-dihydro-1,4-benzodiazepin-3-yl]-2-phenyl-5,6,7,8-tetrahydropyrazolo[5,1-b][1,3]oxazepine-3-carboxamide]",> 16700,7.23
"CC1CCCOc2c(C(=O)N[C@H]3N=C(c4ccccc4)c4ccccc4NC3=O)c(-c3ccccc3F)nn21 (stereo partly drawn) [Example 14, 2-(2-Fluorophenyl)-8-methyl-N-[(3S)-2-oxo-5-phenyl-1,3-dihydro-1,4-benzodiazepin-3-yl]-5,6,7,8-tetrahydropyrazolo[5,1-b][1,3]oxazepine-3-carboxamide]",> 25000,7.17
"CC1(C)CCCn2nc(-c3ccccc3F)c(C(=O)N[C@H]3N=C(c4ccccc4)c4ccccc4NC3=O)c2O1 [Example 5, 2-(2-Fluorophenyl)-5,5-dimethyl-N-[(3S)-2-oxo-5-phenyl-1,3-dihydro-1,4-benzodiazepin-3-yl]-7,8-dihydro-6H-pyrazolo[5,1-b][1,3]oxazepine-3-carboxamide]",> 25000,7.04
"CCC1CCCn2nc(-c3ccccc3F)c(C(=O)N[C@H]3N=C(c4ccccc4)c4ccccc4NC3=O)c2O1 (stereo partly drawn) [Example 24, 5-Ethyl-2-(2-fluorophenyl)-N-[(3S)-2-oxo-5-phenyl-1,3-dihydro-1,4-benzodiazepin-3-yl]-5,6,7,8-tetrahydropyrazolo[5,1-b][1,3]oxazepine-3-carboxamide]",> 25000,7.00
"CCC1CCCn2nc(-c3ccc(C)nc3)c(C(=O)N[C@H]3N=C(c4ccccc4)c4cccc(F)c4NC3=O)c2O1 (stereo partly shown) [Example 27, 5-Ethyl-N-[(3 S)-9-fluoro-2-oxo-5-phenyl-1,3-dihydro-1,4-benzodiazepin-3-yl]-2-(6-methylpyridin-3-yl)-5,6,7,8-tetrahydropyrazolo[5,1-b][1,3]oxazepine-3-carboxamide]",> 25000,6.40
"O=C(N[C@H]1N=C(c2ccccc2)c2ccccc2NC1=O)c1c(-c2ccc(NC3CC3)nc2F)nn2c1OCCCC2 [Example 9, 2-[6-(Cyclopropylamino)-2-fluoropyridin-3-yl]-N-[(3S)-2-oxo-5-phenyl-1,3-dihydro-1,4-benzodiazepin-3-yl]-5,6,7,8-tetrahydropyrazolo[5,1-b][1,3]oxazepine-3-carboxamide]",> 25000,7.62
"CCC1CCCn2nc(-c3ccc(C)nc3)c(C(=O)N[C@H]3N=C(c4ccccc4)c4ccccc4NC3=O)c2O1 (stereo partly drawn) [Example 26, 5-Ethyl-2-(6-methylpyridin-3-yl)-N-[(3S)-2-oxo-5-phenyl-1,3-dihydro-1,4-benzodiazepin-3-yl]-5,6,7,8-tetrahydropyrazolo[5,1-b][1,3]oxazepine-3-carboxamide]",> 25000,6.23
"Cc1cncc(-c2nn3c(c2C(=O)N[C@H]2N=C(c4ccccc4)c4cccc(F)c4NC2=O)OCCCC3)c1 [Example 4, N-[(3S)-9-Fluoro-2-oxo-5-phenyl-1,3-dihydro-1,4-benzodiazepin-3-yl]-2-(5-methylpyridin-3-yl)-5,6,7,8-tetrahydropyrazolo[5,1-b][1,3]oxazepine-3-carboxamide]",> 25000,6.66
